In data set [1] the test system is Raw 264.7 cells. Nature of the data set: Cytotoxicity test (MTT method) in Raw 264.7 cells. It is filed as cell-based. How it is done: RAW264.7 cells (obtained from ATCC (Rockville, Md., USA) as a murine macrophage cell line) were incubated in RPMI 1640 medium supplemented with FBS (10% heat-inactivated fetal bovine serum; Gibco, Grand Island, N.Y., USA), glutamine, antibiotics (penicillin and streptomycin) at 37° C. and 5% CO2.
In all experiments, cells were detached with a cell scraper. When cells were incubated at a concentration of 2×10^6 cells/mL in the experiment, the percentage of dead cells was 1% or less (confirmed by a trypan blue dye exclusion method).
In order to determine the appropriate concentration of extract treatment for anti-inflammatory evaluation of 5-adamantan-1-yl-N-(2,4-dihydroxybenzyl)-2,4-dimethoxybenzamide, the cytotoxicity of 5-adamantan-1-yl-N-(2,4-dihydroxybenzyl)-2,4-dimethoxybenzamide at each concentration was evaluated in the cells used in the experiments.
Raw 264.7 cells in the subculture were plated on a well plate at a density of […]. After 18 hours of cell incubation, the cells were subjected to a sample treatment so that the concentration of 5-adamantan-1-yl-N-(2,4-dihydroxybenzyl)-2,4-dimethoxybenzamide (referred to as ‘AP736’ in FIG. 1) was from 0 to 30 μM. The cells were incubated for 8 hours or 24 hours in an incubator. The cytotoxic effect was evaluated by the conventional MTT method. Before the last 3 hours of incubation, 10 μL of MTT {3-[4,5-dimethylthiazol-2-yl]-2,5-diphenyltetrazolium bromide} solution (10 mg/mL in phosphate-buffered saline, pH 7.4) was added to each well. To each well, 15% SDS (sodium dodecyl sulfate) was added to terminate the reaction, and the formazan crystal was then dissolved therein. Thereafter, the absorbance at 570 nm was measured on a microplate reader.

Data set [2] in a line: DPPH free radical scavenging evaluation. It is filed as biochemical. The following applies: 0 to 200 μg/ml, DPPH 0.2 mM in methanol, 30 minutes, absorbance 517 nm (FIG. 2). Here is the method: The DPPH free radical scavenging evaluation method was performed as follows.
In 5-adamantan-1-yl-N-(2,4-dihydroxybenzyl)-2,4-dimethoxybenzamide (referred to as ‘AP736’ in FIG. 2) prepared in Example, a reaction product adjusted to a concentration of from 0 to 200 μg/ml and a methanol solution of DPPH (0.2 mM) were incubated for 30 minutes. The absorbance of the solution was measured at 517 nm. The scavenging ability was expressed by the value obtained by comparing the absorbance of the solution to that (100%) of the control DPPH solution in % as presented in the following Mathematical Formula 1.

The subject of data set [3] is matrix metalloprotease-1 (MMP-1). The data set is described as follows: MMP-1 assay: UV-induced MMP-1 expression in HS68 human fibroblasts (MMP-1 ELISA kit). The following applies: UV-irradiated HS68 cells, 0.1, 0.5, and 1 μM, 48 hours (FIG. 3). The format is cell-based. Here is the method: In order to confirm the anti-aging effect of the sample, an experiment to see how much 5-adamantan-1-yl-N-(2,4-dihydroxybenzyl)-2,4-dimethoxybenzamide can inhibit the expression of matrix metalloprotease-1 (MMP-1) to be induced by ultraviolet (UV) rays was performed.
Human fibroblasts (HS68 cells, purchased from ATCC (Rockville, Md., USA)) were plated on a well plate at a density of 7.5×10^4 cells/well, then incubated in DMEM (Dulbecco's Modified Eagle's Medium) containing 10% FBS for 24 hours, then washed with PBS (phosphate-buffered saline), then 0.5 ml of PBS was added thereto, and the expression of MMP-1 was induced by irradiating the resultant incubated cells with ultraviolet rays. After changing to Serum-Free DMEM, the resultant was treated with 5-adamantan-1-yl-N-(2,4-dihydroxybenzyl)-2,4-dimethoxybenzamide (referred to as ‘AP736’ in FIG. 3) prepared in Example. The amount of the supernatant obtained after incubation for a certain period of time (48 hours) was measured by using an MMP-1 ELISA kit.
In other words, HS68 cells of human dermal fibroblasts were treated with ultraviolet rays to increase the expression of MMP-1, and the resulting HS68 cells were then treated with each sample to see whether the expression of MMP-1 decreased. The experimental results are illustrated in FIG. 3. […]

For `COc1cc(OC)c(C23CC4CC(CC(C4)C2)C3)cc1C(=O)NCc1ccc(O)cc1O` [AP736, 5-adamantan-1-yl-N-(2,4-dihydroxybenzyl)-2,4-dimethoxybenzamide], the cell viability result in data set [1] (10 μM, 8 hours) was “about 100%”; in data set [1] (10 μM, 24 hours) it was “about 100%”; in data set [1] (20 μM, 8 hours) it was “about 100%”; in data set [1] (20 μM, 24 hours), “about 100%”; in data set [1] (30 μM, 24 hours), “about 80%”. Moreover, the “percentage of DPPH radical scavenging activity” value in data set [2] is given as “increases”. For the same compound, in data set [3], the “expression of MMP-1” value was “tended to decrease”.

The values are drawn from patent US20180116933A1, “ANTI-OXIDATIVE OR ANTI-AGING COMPOSITION CONTAINING 5-ADAMANTAN-1-YL-N-(2,4-DIHYDROXYBENZYL)-2,4-DIMETHOXYBENZAMIDE” (Amorepacific Corporation, priority 2015, published 2018).
